Measured values: ChEMBL document CHEMBL1156290, “Identification of amide bioisosteres of triazole oxytocin antagonists” (Bioorg Med Chem Lett, 2010)
pKi: −log10 of the molar value.

Key:
Type in all cases: functional
[1] = target: T1, Oxytocin receptor (Homo sapiens, UniProt P30559); test: Antagonist activity at human cloned OT receptor by cell based beta-lactamase reporter gene assay
T1 sequence (P30559 whole entry): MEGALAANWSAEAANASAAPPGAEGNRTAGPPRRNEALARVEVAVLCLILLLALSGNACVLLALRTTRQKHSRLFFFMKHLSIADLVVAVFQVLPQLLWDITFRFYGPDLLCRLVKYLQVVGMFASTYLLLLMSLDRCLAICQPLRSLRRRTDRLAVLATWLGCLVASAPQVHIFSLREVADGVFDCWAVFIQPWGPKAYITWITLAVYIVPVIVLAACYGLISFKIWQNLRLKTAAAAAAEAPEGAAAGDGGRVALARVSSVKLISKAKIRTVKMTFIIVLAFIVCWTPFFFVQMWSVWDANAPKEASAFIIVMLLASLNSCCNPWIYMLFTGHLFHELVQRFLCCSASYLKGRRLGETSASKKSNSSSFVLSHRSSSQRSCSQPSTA

[2] = target: Vasopressin V1a receptor (Homo sapiens, UniProt P37288); test: Antagonist activity at human cloned vasopressin V1A receptor by cell based beta-lactamase reporter gene assay
Chain of Vasopressin V1a receptor (P37288 whole entry): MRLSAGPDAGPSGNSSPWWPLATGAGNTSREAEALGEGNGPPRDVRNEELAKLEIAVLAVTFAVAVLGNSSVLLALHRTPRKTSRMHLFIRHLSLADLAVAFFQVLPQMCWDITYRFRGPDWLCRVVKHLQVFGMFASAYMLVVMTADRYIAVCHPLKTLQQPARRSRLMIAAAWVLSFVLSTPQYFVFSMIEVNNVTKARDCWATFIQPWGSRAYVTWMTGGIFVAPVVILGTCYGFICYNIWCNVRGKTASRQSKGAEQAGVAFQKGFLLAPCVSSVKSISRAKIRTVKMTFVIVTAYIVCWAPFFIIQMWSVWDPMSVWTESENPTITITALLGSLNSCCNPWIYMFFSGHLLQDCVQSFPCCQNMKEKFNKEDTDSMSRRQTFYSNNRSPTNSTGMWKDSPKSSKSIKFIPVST

[3] = target: Vasopressin V2 receptor (Homo sapiens, UniProt P30518); test: Antagonist activity at human cloned vasopressin V2 receptor by cell based beta-lactamase reporter gene assay
Chain of Vasopressin V2 receptor (P30518 whole entry): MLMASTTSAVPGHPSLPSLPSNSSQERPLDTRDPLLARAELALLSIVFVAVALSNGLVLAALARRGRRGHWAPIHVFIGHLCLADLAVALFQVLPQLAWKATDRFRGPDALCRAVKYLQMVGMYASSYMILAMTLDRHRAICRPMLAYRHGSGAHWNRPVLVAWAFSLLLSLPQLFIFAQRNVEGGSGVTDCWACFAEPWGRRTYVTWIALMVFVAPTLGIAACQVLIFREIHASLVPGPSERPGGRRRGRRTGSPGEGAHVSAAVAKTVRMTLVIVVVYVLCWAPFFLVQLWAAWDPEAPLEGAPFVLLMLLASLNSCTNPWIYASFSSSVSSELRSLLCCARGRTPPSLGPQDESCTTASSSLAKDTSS

[4] = target: T2, Vasopressin V1b receptor (Homo sapiens) (UniProt P47901); test: Antagonist activity at human cloned vasopressin V1B receptor at 10 uM by cell based beta-lactamase reporter gene assay; design: scale not given: the % may be the effect or the level left
T2 sequence (whole entry): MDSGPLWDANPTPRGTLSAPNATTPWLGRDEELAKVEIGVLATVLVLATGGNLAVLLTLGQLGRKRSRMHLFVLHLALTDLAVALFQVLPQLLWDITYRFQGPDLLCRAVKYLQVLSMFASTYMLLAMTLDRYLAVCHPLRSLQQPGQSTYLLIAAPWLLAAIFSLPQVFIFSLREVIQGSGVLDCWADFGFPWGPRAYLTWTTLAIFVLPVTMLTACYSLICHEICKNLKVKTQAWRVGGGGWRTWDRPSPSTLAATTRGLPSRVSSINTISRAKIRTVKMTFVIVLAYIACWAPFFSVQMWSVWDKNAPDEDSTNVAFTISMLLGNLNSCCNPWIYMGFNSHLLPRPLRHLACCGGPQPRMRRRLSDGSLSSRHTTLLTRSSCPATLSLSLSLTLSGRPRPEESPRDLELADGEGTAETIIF

| SMILES | pKi [1] | pKi [2] | pKi [3] | Activity [4] [%] |
| --- | --- | --- | --- | --- |
| COCCN(C(=O)c1cnc(-c2ccc(C#N)cc2C)cn1)c1ccc(OC)nc1 | 6.36 | 4.92 | < 5.00 |  |
| CCN(C(=O)c1cc2cc(OC)ccc2o1)c1ccc(OC)nc1 | 7.07 |  |  |  |
| CCN(C(=O)COc1ccc(C(C)C)cc1)c1ccc(OC)nc1 | 6.60 |  |  |  |
| CCN(C(=O)c1ccc(-c2ccccc2)[nH]c1=O)c1ccc(OC)nc1 | 7.01 |  |  |  |
| CCN(C(=O)c1ccc(-c2ccc(OC)cc2)[nH]c1=O)c1ccc(OC)nc1 | 7.08 |  |  |  |
| COCCN(C(=O)c1cnc(-c2cccc(C)c2C)cn1)c1ccc(OC)nc1 | 7.96 | 6.27 | 5.62 | < 20 |
| COc1ccc(N(C(=O)c2cnc(-c3cccc(C)c3C)cn2)C(C)C)cn1 | 7.85 | < 5.00 | 5.64 |  |
| CCN(C(=O)c1cnn(-c2ccccc2)c1C)c1ccc(OC)nc1 | 7.07 |  |  |  |
| COCCN(C(=O)c1cnn(-c2ccccc2)c1C)c1ccc(OC)nc1 | 7.01 |  |  |  |
| COc1ccc(N(C)C(=O)c2cnc(-c3ccc(C#N)cc3C)cn2)cn1 | 6.21 | < 5.00 | < 5.00 |  |
| CCN(C(=O)COc1ccc2ccccc2c1)c1ccc(OC)nc1 | 7.32 |  |  |  |
| CCN(C(=O)c1cnc(-c2ccc(C#N)cc2C)cn1)c1ccc(OC)nc1 | 6.41 | 5.14 | < 5.00 |  |
| COc1ccc(N(C)C(=O)c2ccc(-c3ccccc3)cc2)cn1 | 7.05 |  |  |  |
| CCN(C(=O)c1cnc(-c2cccc(F)c2C)cn1)c1ccc(OC)nc1 | 7.54 | 5.23 | 6.46 |  |
| COc1ccc(N(C)C(=O)c2cnc(-c3ccc(F)cc3C)cn2)cn1 | 6.66 | 5.70 |  |  |
| CCN(C(=O)c1cnc(-c2ccccc2C)cn1)c1ccc(OC)nc1 | 6.89 | 5.64 | < 5.00 |  |

Continued, values first:

| pKi [1] | pKi [2] | pKi [3] | Activity [4] [%] | SMILES |
| --- | --- | --- | --- | --- |
| 6.82 | < 5.00 | < 5.00 |  | COc1ccc(N(C(=O)c2cnc(-c3ccccc3C)cn2)C(C)C)cn1 |
| 6.63 |  |  |  | COc1ccc2oc(C(=O)N(C)c3ccc(OC)nc3)cc2c1 |
| 7.60 | 6.33 | 5.55 | < 20 | CCN(C(=O)c1cnc(-c2cccc(C)c2C)cn1)c1ccc(OC)nc1 |
| 6.94 | 5.48 | < 5.00 |  | COCCN(C(=O)c1cnc(-c2ccccc2C)cn1)c1ccc(OC)nc1 |
| 7.04 |  |  |  | CCN(C(=O)c1cnn(-c2ccc(OC)cc2)c1C)c1ccc(OC)nc1 |
| 7.39 |  |  |  | CCN(C(=O)c1cc(-c2ccc(C)cc2)n[nH]1)c1ccc(OC)nc1 |
| 7.04 | 5.96 | < 5.00 |  | COc1ccc(N(C)C(=O)c2cnc(-c3ccccc3C)cn2)cn1 |
